Reference: patent publication US7498350B2, “Oxazolidinones as antibacterial agents” (AstraZeneca AB, priority 2002, dated 2009)
Converted amounts (≈) assume the structure as drawn.

Assays:
Format in all cases: cell-based
[1] = test system: Staphylococcus aureus MSQS (methicillin sensitive and quinolone sensitive); experiment: MIC by agar dilution, Staphylococcus aureus MSQS; conditions: 10^4 CFU/spot, 37° C., 24 hours
Experimental: (§1) The following results were obtained on a standard in-vitro test system. The activity is described in terms of the minimum inhibitory concentration (MIC) determined by the agar-dilution technique with an inoculum size of 10^4 CFU/spot. Typically, compounds are active in the range 0.01 to 256 μg/ml.
(§2) Staphylococci were tested on agar, using an inoculum of 10^4 CFU/spot and an incubation temperature of 37° C. for 24 hours—standard test conditions for the expression of methicillin resistance.

[2] = test system: Staphylococcus aureus MRQR (methicillin resistant and quinolone resistant); experiment: MIC by agar dilution, Staphylococcus aureus MRQR; conditions: 10^4 CFU/spot, 37° C., 24 hours
Experimental: as §1, §2

[3] = test system: Streptococcus pneumoniae; experiment: MIC by agar dilution, Streptococcus pneumoniae; conditions: agar with 5% defibrinated horse blood, 10^4 CFU/spot, 37° C., 5% carbon dioxide, 48 hours
Experimental: as §1
(§3) Streptococci and enterococci were tested on agar supplemented with 5% defibrinated horse blood, an inoculum of 10^4 CFU/spot and an incubation temperature of 37° C. in an atmosphere of 5% carbon dioxide for 48 hours—blood is required for the growth of some of the test organisms. Fastidious Gram negative organisms were tested in Mueller-Hinton broth supplemented with hemin and NAD, grown aerobically for 24 hours at 37° C., and with an innoculum of 5×10^4 CFU/well.

[4] = test system: Enterococcus faecium; experiment: MIC by agar dilution, Enterococcus faecium; conditions: agar with 5% defibrinated horse blood, 10^4 CFU/spot, 37° C., 5% carbon dioxide, 48 hours
Experimental: as §1, §3

[5] = test system: Haemophilus influenzae; experiment: MIC, Haemophilus influenzae (fastidious Gram negative, Mueller-Hinton broth); conditions: Mueller-Hinton broth with hemin and NAD, 24 hours, 37° C., 5×10^4 CFU/well
Experimental: as §1, §3

[6] = test system: Moraxella catarrhalis; experiment: MIC, Moraxella catarrhalis (fastidious Gram negative, Mueller-Hinton broth); conditions: Mueller-Hinton broth with hemin and NAD, 24 hours, 37° C., 5×10^4 CFU/well
Experimental: as §1, §3

[7] = test system: Linezolid Resistant Streptococcus pneumoniae; experiment: MIC by agar dilution, Linezolid Resistant Streptococcus pneumoniae; conditions: agar with 5% defibrinated horse blood, 10^4 CFU/spot, 37° C., 5% carbon dioxide, 48 hours
Experimental: as §1, §3

Cn1nnc(-c2ccc(-c3ccc(N4C[C@H](Cn5ccnn5)OC4=O)cc3F)cn2)n1 [Example 1, (5R)-3-(3-Fluoro-4-(6-(2-methyl-2H-tetrazol-5-yl)pyrid-3-yl)phenyl)-5-(1H-1,2,3-triazol-1-ylmethyl)-1,3-oxazolidin-2-one]
MIC [1]: 0.25 mg/L (≈ 0.593 µM)
MIC [2]: 0.25 mg/L (≈ 0.593 µM)
MIC [3]: < 0.06 mg/L
MIC [4]: 0.25 mg/L (≈ 0.593 µM)
MIC [5]: 2 mg/L (≈ 4.75 µM)
MIC [6]: 0.25 mg/L (≈ 0.593 µM)
MIC [7]: 0.5 mg/L (≈ 1.19 µM)
